Measured values: ChEMBL document CHEMBL3272183, “Analgesics. 1. Synthesis and analgesic properties of N-sec-alkyl- and N-tert-alkylnormorphines” (J Med Chem, 1978)
Active and inactive are the calls of the source. The rule behind the calls is not given here.

Tests used:
[1] = species on record: Mus musculus; assay: Analgesic activity in Swiss-Webster mouse measured for 20 mins by tail flick test; format: functional
[2] = test system: Mus musculus; assay: In vivo inhibition of morphine-induced straub-tail response in sc dosed Swiss-Webster mouse measured for 30 mins; format: functional; settings: for ED50: 0.5 h
[3] = species on record: Mus musculus; assay: Analgesic activity in Swiss-Webster mouse assessed as reduction of […]-induced writhing; format: functional
[4] = target: T1, Opioid receptor (Rattus norvegicus, UniProt P33533+P34975+P33535); assay: Displacement of [3H]-naloxone from rat opioid receptor after 30 mins by liquid scintillation counting analysis in presence of NaCl; format: protein assay
[5] = target: T1, Opioid receptor; assay: Displacement of [3H]-naloxone from rat opioid receptor after 30 mins by liquid scintillation counting analysis in absence of NaCl; format: protein assay

| SMILES | ED50 [1] [µmol/kg] | inhibition [2] | ED50 [3] [µmol/kg] | IC50 [4] [nM] | IC50 [5] [nM] | ED50 [2] [µmol/kg] |
| --- | --- | --- | --- | --- | --- | --- |
| CN1CC[C@]23c4c5ccc(O)c4O[C@H]2[C@@H](O)C=C[C@H]3[C@H]1C5 [MORPHINE] | 10.5 | inactive | 1.5 |  |  |  |
| Oc1ccc2c3c1O[C@H]1[C@@H](O)C=C[C@H]4[C@@H](C2)N(C2CCCCC2)CC[C@@]341 | > 212 |  | 15.7 | 92 | 38 |  |
| Oc1ccc2c3c1O[C@H]1[C@@H](O)C=C[C@H]4[C@@H](C2)N(C2CCCC2)CC[C@@]341 | 124 |  | 15.5 | 45 | 34 | 15.5 |
| Oc1ccc2c3c1O[C@H]1[C@@H](O)C=C[C@H]4[C@@H](C2)N(C2C=CCCC2)CC[C@@]341 (some centres not stated) | 79.7 |  |  | 130 | 51 | 23.8 |
| CC(Cc1ccccc1)N1CC[C@]23c4c5ccc(O)c4O[C@H]2[C@@H](O)C=C[C@H]3[C@H]1C5 (some centres not stated) | 4.3 | inactive | 0.13 | 125 | 3.4 |  |
| CC(C)(Cc1ccccc1)N1CC[C@]23c4c5ccc(O)c4O[C@H]2[C@@H](O)C=C[C@H]3[C@H]1C5 | > 310 |  | > 176 | 1000 | 1000 |  |
| CCC(CC)N1CC[C@]23c4c5ccc(O)c4O[C@H]2[C@@H](O)C=C[C@H]3[C@H]1C5 |  |  |  | 175 | 78 |  |
| C=CC(C)(C)N1CC[C@]23c4c5ccc(O)c4O[C@H]2[C@@H](O)C=C[C@H]3[C@H]1C5 | > 295 |  | 74 | > 1000 | > 1000 |  |
| C=C[C@@H](C)N1CC[C@]23c4c5ccc(O)c4O[C@H]2[C@@H](O)C=C[C@H]3[C@H]1C5 |  |  |  | 80 | 27 |  |
| C=C[C@H](C)N1CC[C@]23c4c5ccc(O)c4O[C@H]2[C@@H](O)C=C[C@H]3[C@H]1C5 | 105 |  |  | 25 | 16 |  |
| Oc1ccc2c3c1O[C@H]1[C@@H](O)C=C[C@H]4[C@@H](C2)N(C2CCCCCC2)CC[C@@]341 | > 136 |  | 9.9 | 150 | 19 | 60.8 |
| Oc1ccc2c3c1O[C@H]1[C@@H](O)C=C[C@H]4[C@@H](C2)N(CCc2ccccc2)CC[C@@]341 | 1.7 | inactive | 0.27 | 133 | 4.2 |  |
| CCCN1CC[C@]23c4c5ccc(O)c4O[C@H]2[C@@H](O)C=C[C@H]3[C@H]1C5 | 51 |  | 29 | 14 | 14 | 0.6 |
| CC[C@@H](C)N1CC[C@]23c4c5ccc(O)c4O[C@H]2[C@@H](O)C=C[C@H]3[C@H]1C5 |  |  |  | 110 | 60 |  |
| CCC(C)(C)N1CC[C@]23c4c5ccc(O)c4O[C@H]2[C@@H](O)C=C[C@H]3[C@H]1C5 | > 580 |  | > 290 | 1000 | 1000 |  |
| CC[C@H](C)N1CC[C@]23c4c5ccc(O)c4O[C@H]2[C@@H](O)C=C[C@H]3[C@H]1C5 |  |  |  | 62 | 28 |  |
| C=CCN1CC[C@]23c4c5ccc(O)c4O[C@H]2[C@@H](O)C=C[C@H]3[C@H]1C5 [NALORPHINE] |  |  | 3.2 | 6 | 2 |  |
| CCCC(C)N1CC[C@]23c4c5ccc(O)c4O[C@H]2[C@@H](O)C=C[C@H]3[C@H]1C5 (some centres not stated) | > 439 |  | 9 | 340 | 37 | 80.8 |
